A compilation of properties of binary mixtures (doi:10.1016/j.molliq.2016.02.091)

Test: xn = mol fraction of the nth substance listed
Conditions: 101 kPa

CC[n+]1ccn(C)c1.COS(=O)(=O)[O-] + CC(=O)O
speed of sound [m/s]
Conditions	x2 = 0	x2 = 0.1669	x2 = 0.3003	x2 = 0.5004	x2 = 0.6432	x2 = 0.7503	x2 = 0.8336	x2 = 0.9001	x2 = 0.9546	x2 = 0.9783
298.15 K	1758	1713	1665	1593	1501	1419	–	1274	1202	–
303.15 K	1745	1702	1650	1580	–	1403	–	1258	–	1151
308.15 K	1734	–	1641	1568	1473	1391	1318	1246	1172	1136
313.15 K	1723	1681	1624	–	1456	1371	1298	1225	1152	1116

CC[n+]1ccn(C)c1.COS(=O)(=O)[O-] + CCC(=O)O
speed of sound [m/s]
Conditions	x2 = 0	x2 = 0.1332	x2 = 0.2478	x2 = 0.4345	x2 = 0.5804	x2 = 0.6975	x2 = 0.7935	x2 = 0.8737	x2 = 0.9417	x2 = 0.9719
298.15 K	1758	1715	1669	1590	1509	1430	1356	1285	1215	–
303.15 K	1745	1701	1656	1576	1493	1413	1339	1267	1197	1162
308.15 K	1734	1689	1642	1563	1478	1396	1321	1249	1178	1143
313.15 K	1723	1678	1630	1549	1462	1380	1304	1231	1160	–

CC(=O)O + CC[n+]1ccn(C)c1.COS(=O)(=O)[O-]
x1 = 1
Conditions	speed of sound [m/s]
298.15 K	1133
303.15 K	1117
308.15 K	1102
313.15 K	1082

CCC(=O)O + CC[n+]1ccn(C)c1.COS(=O)(=O)[O-]
x1 = 1
Conditions	speed of sound [m/s]
303.15 K	1129
308.15 K	1110
